Experimental data from ChEMBL document CHEMBL1133072, “Synthesis and biological activity of 1beta-methyl-2-[5'-isoxazoloethenylpyrrolidin-3'-ylthio]carbapenems” (2000).
Converted amounts (≈) assume the structure as drawn.

Experiments:
Escherichia coli [1] = experiment: Minimum inhibitory concentration against Escherichia coli 055 was determined by agar dilution method using Mueller-Hinton; assay type: functional
Escherichia coli [2] = experiment: Minimum inhibitory concentration against Escherichia coli 1507E was determined by agar dilution method using Mueller-Hinton; assay type: functional
Klebsiella aerogenes = experiment: Minimum inhibitory concentration against Klebsiella aerogenes 1522E was determined by agar dilution method using Mueller-Hinton; assay type: functional
Pseudomonas aeruginosa [3] = experiment: Minimum inhibitory concentration against Pseudomonas aeruginosa 1592E was determined by agar dilution method using Mueller-Hinton; assay type: functional
Pseudomonas aeruginosa [4] = experiment: Minimum inhibitory concentration against Pseudomonas aeruginosa 1771M was determined by agar dilution method using Mueller-Hinton; assay type: functional
Pseudomonas aeruginosa [5] = experiment: Minimum inhibitory concentration against Pseudomonas aeruginosa 9027 was determined by agar dilution method using Mueller-Hinton; assay type: functional
Salmonella typhimurium = experiment: Minimum inhibitory concentration against Salmonella Typhimurium was determined by agar dilution method using Mueller-Hinton; assay type: functional, Salmonella enterica subsp. enterica serovar Typhimurium; conditions: Salmonella enterica
Streptococcus pyogenes = experiment: Minimum inhibitory concentration against Streptococcus pyogenes 308A was determined by agar dilution method using Mueller-Hinton; assay type: functional
Staphylococcus aureus [6] = experiment: Minimum inhibitory concentration against Staphylococcus aureus 285 was determined by agar dilution method using Mueller-Hinton; assay type: functional
Staphylococcus aureus [7] = experiment: Minimum inhibitory concentration against Staphylococcus aureus 503 was determined by agar dilution method using Mueller-Hinton; assay type: functional
Staphylococcus aureus [8] = experiment: Minimum inhibitory concentration against Staphylococcus aureus SG 511 was determined by agar dilution method using Mueller-Hinton; assay type: functional
Enterobacter cloacae = experiment: Minimum inhibitory concentration against Enterobacter cloacae 1321E was determined by agar dilution method using Mueller-Hinton; assay type: functional
[9] = biological target: Dipeptidase 1 (Sus scrofa) (UniProt P22412); experiment: Relative half life of hydrolysis to meropenem by partially purified porcine renal DHP-I was determined
[10] = biological target: Dipeptidase 1 (Sus scrofa) (UniProt P22412); experiment: Stability to porcine renal DHP-I was determined

Chain of Dipeptidase 1 (Sus scrofa) (P22412 whole entry, looked up): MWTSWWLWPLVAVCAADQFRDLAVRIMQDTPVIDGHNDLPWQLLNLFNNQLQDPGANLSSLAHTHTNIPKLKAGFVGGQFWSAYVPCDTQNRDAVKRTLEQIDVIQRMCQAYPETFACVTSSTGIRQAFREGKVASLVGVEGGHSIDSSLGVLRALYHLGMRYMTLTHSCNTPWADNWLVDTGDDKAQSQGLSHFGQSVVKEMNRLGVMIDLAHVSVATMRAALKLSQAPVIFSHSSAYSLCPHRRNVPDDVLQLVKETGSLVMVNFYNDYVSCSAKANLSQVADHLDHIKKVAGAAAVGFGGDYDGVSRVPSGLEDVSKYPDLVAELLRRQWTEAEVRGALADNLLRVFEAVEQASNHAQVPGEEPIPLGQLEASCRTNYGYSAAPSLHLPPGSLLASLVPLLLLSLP

| MIC (Escherichia coli [1]) [µg/mL] | MIC (Escherichia coli [2]) [µg/mL] | MIC (Klebsiella aerogenes) [µg/mL] | MIC (Pseudomonas aeruginosa [3]) [µg/mL] | MIC (Pseudomonas aeruginosa [4]) [µg/mL] | MIC (Pseudomonas aeruginosa [5]) [µg/mL] | MIC (Salmonella typhimurium) [µg/mL] | MIC (Streptococcus pyogenes) [µg/mL] | MIC (Staphylococcus aureus [6]) [µg/mL] | MIC (Staphylococcus aureus [7]) [µg/mL] | MIC (Staphylococcus aureus [8]) [µg/mL] | MIC (Enterobacter cloacae) [µg/mL] | Relativity [9] | Compound | Activity [10] |
| --- | --- | --- | --- | --- | --- | --- | --- | --- | --- | --- | --- | --- | --- | --- |
| 0.391 (≈ 0.964 µM) | 1.56 (≈ 3.85 µM) | 3.12 (≈ 7.71 µM) | 25 (≈ 61.7 µM) | 3.12 (≈ 7.71 µM) | 25 (≈ 61.7 µM) | 0.391 (≈ 0.964 µM) | < 0.002 | 0.025 (≈ 0.0617 µM) | 0.013 (≈ 0.0321 µM) | 0.013 (≈ 0.0321 µM) | 1.56 (≈ 3.85 µM) | 1.84 | C[C@@H](O)[C@H]1C(=O)N2C(C(=O)O)=C(S[C@@H]3CN[C@H](/C=C\c4cnoc4)C3)[C@H](C)[C@H]12 |  |
| 0.025 (≈ 0.0617 µM) | 0.025 (≈ 0.0617 µM) | 0.049 (≈ 0.121 µM) | 0.195 (≈ 0.481 µM) | 0.195 (≈ 0.481 µM) | 0.195 (≈ 0.481 µM) | 0.049 (≈ 0.121 µM) | 0.004 (≈ 0.00986 µM) | 0.025 (≈ 0.0617 µM) | 0.013 (≈ 0.0321 µM) | 0.025 (≈ 0.0617 µM) | 0.025 (≈ 0.0617 µM) | 1.95 | C[C@@H](O)[C@H]1C(=O)N2C(C(=O)O)=C(S[C@@H]3CN[C@H](/C=C/c4ccno4)C3)[C@H](C)[C@H]12 |  |
| 0.098 (≈ 0.242 µM) | 0.098 (≈ 0.242 µM) | 0.098 (≈ 0.242 µM) | 3.12 (≈ 7.71 µM) | 0.781 (≈ 1.93 µM) | 3.12 (≈ 7.71 µM) | 0.098 (≈ 0.242 µM) | 0.025 (≈ 0.0617 µM) | 0.195 (≈ 0.481 µM) | 0.098 (≈ 0.242 µM) | 0.195 (≈ 0.481 µM) | 0.049 (≈ 0.121 µM) | 2.33 | C[C@@H](O)[C@H]1C(=O)N2C(C(=O)O)=C(S[C@@H]3CN[C@H](/C=C/c4ccon4)C3)[C@H](C)[C@H]12 |  |
| 0.025 (≈ 0.0568 µM) | 0.025 (≈ 0.0568 µM) | 0.025 (≈ 0.0568 µM) | 0.781 (≈ 1.78 µM) | 0.195 (≈ 0.443 µM) | 0.781 (≈ 1.78 µM) | 0.025 (≈ 0.0568 µM) | 0.004 (≈ 0.00909 µM) | 0.025 (≈ 0.0568 µM) | 0.013 (≈ 0.0296 µM) | 0.013 (≈ 0.0296 µM) | 0.013 (≈ 0.0296 µM) | 1.33 | C[C@@H](O)[C@H]1C(=O)N2C(C(=O)O)=C(S[C@@H]3CN[C@H](/C=C/c4cc(Cl)no4)C3)[C@H](C)[C@H]12 |  |
| 0.049 (≈ 0.113 µM) | 0.049 (≈ 0.113 µM) | 0.098 (≈ 0.225 µM) | 3.12 (≈ 7.18 µM) | 1.56 (≈ 3.59 µM) | 3.12 (≈ 7.18 µM) | 0.098 (≈ 0.225 µM) | 0.013 (≈ 0.0299 µM) | 0.049 (≈ 0.113 µM) | 0.049 (≈ 0.113 µM) | 0.049 (≈ 0.113 µM) | 0.049 (≈ 0.113 µM) | 1.59 | C[C@@H](O)[C@H]1C(=O)N2C(C(=O)O)=C(S[C@@H]3CN[C@H](/C=C\c4cc(CO)no4)C3)[C@H](C)[C@H]12 |  |
| 0.098 (≈ 0.225 µM) | 0.391 (≈ 0.898 µM) | 0.391 (≈ 0.898 µM) | 12.5 (≈ 28.7 µM) | 6.25 (≈ 14.4 µM) | 12.5 (≈ 28.7 µM) | 0.195 (≈ 0.448 µM) | 0.007 (≈ 0.0161 µM) | 0.025 (≈ 0.0574 µM) | 0.049 (≈ 0.113 µM) | 0.049 (≈ 0.113 µM) | 0.195 (≈ 0.448 µM) | 2.14 | COc1cc(/C=C/[C@@H]2C[C@H](SC3=C(C(=O)O)N4C(=O)[C@H]([C@@H](C)O)[C@H]4[C@H]3C)CN2)on1 |  |
| 0.025 (≈ 0.0539 µM) | 0.025 (≈ 0.0539 µM) | 0.049 (≈ 0.106 µM) | 0.195 (≈ 0.421 µM) | 0.195 (≈ 0.421 µM) | 0.098 (≈ 0.211 µM) | 0.025 (≈ 0.0539 µM) | 0.007 (≈ 0.0151 µM) | 0.049 (≈ 0.106 µM) | 0.025 (≈ 0.0539 µM) | 0.049 (≈ 0.106 µM) | 0.025 (≈ 0.0539 µM) | 1.35 | COC(=O)c1cc(/C=C\[C@@H]2C[C@H](SC3=C(C(=O)O)N4C(=O)[C@H]([C@@H](C)O)[C@H]4[C@H]3C)CN2)on1 |  |
| 0.025 (≈ 0.0539 µM) | 0.025 (≈ 0.0539 µM) | 0.049 (≈ 0.106 µM) | 0.195 (≈ 0.421 µM) | 0.098 (≈ 0.211 µM) | 0.098 (≈ 0.211 µM) | 0.025 (≈ 0.0539 µM) | 0.007 (≈ 0.0151 µM) | 0.049 (≈ 0.106 µM) | 0.025 (≈ 0.0539 µM) | 0.049 (≈ 0.106 µM) | 0.025 (≈ 0.0539 µM) | 2.68 | COC(=O)c1cc(/C=C/[C@@H]2C[C@H](SC3=C(C(=O)O)N4C(=O)[C@H]([C@@H](C)O)[C@H]4[C@H]3C)CN2)on1 |  |
| 0.025 (≈ 0.0574 µM) | 0.025 (≈ 0.0574 µM) | 0.049 (≈ 0.113 µM) | 0.195 (≈ 0.448 µM) | 0.098 (≈ 0.225 µM) | 0.195 (≈ 0.448 µM) | 0.049 (≈ 0.113 µM) | 0.007 (≈ 0.0161 µM) | 0.025 (≈ 0.0574 µM) | 0.025 (≈ 0.0574 µM) | 0.025 (≈ 0.0574 µM) | 0.025 (≈ 0.0574 µM) | 2.01 | C[C@@H](O)[C@H]1C(=O)N2C(C(=O)O)=C(S[C@@H]3CN[C@H](/C=C/c4cc(CO)no4)C3)[C@H](C)[C@H]12 |  |

| Compound | MIC (Escherichia coli [1]) [µg/mL] | MIC (Escherichia coli [2]) [µg/mL] | MIC (Klebsiella aerogenes) [µg/mL] | MIC (Pseudomonas aeruginosa [3]) [µg/mL] | MIC (Pseudomonas aeruginosa [4]) [µg/mL] | MIC (Pseudomonas aeruginosa [5]) [µg/mL] | MIC (Salmonella typhimurium) [µg/mL] | MIC (Streptococcus pyogenes) [µg/mL] | MIC (Staphylococcus aureus [6]) [µg/mL] | MIC (Staphylococcus aureus [7]) [µg/mL] | MIC (Staphylococcus aureus [8]) [µg/mL] | MIC (Enterobacter cloacae) [µg/mL] | Relativity [9] | Activity [10] |
| --- | --- | --- | --- | --- | --- | --- | --- | --- | --- | --- | --- | --- | --- | --- |
| C[C@@H](O)[C@H]1C(=O)N2C(C(=O)O)=C(SCCNC=N)C[C@H]12 [IMIPENEM ANHYDROUS] | 0.098 (≈ 0.327 µM) | 0.195 (≈ 0.651 µM) | 0.391 (≈ 1.31 µM) | 1.56 (≈ 5.22 µM) | 0.195 (≈ 0.651 µM) | 0.781 (≈ 2.61 µM) | 0.781 (≈ 2.61 µM) | 0.007 (≈ 0.0234 µM) | 0.025 (≈ 0.0835 µM) | 0.013 (≈ 0.0434 µM) | 0.025 (≈ 0.0835 µM) | 0.195 (≈ 0.651 µM) | 0.19 |  |
| C[C@@H](O)[C@H]1C(=O)N2C(C(=O)O)=C(S[C@@H]3CN[C@H](C(=O)N(C)C)C3)[C@H](C)[C@H]12 [MEROPENEM] | 0.025 (≈ 0.0652 µM) | 0.025 (≈ 0.0652 µM) | 0.049 (≈ 0.128 µM) | 0.195 (≈ 0.509 µM) | 0.049 (≈ 0.128 µM) | 0.195 (≈ 0.509 µM) | 0.049 (≈ 0.128 µM) | 0.013 (≈ 0.0339 µM) | 0.195 (≈ 0.509 µM) | 0.098 (≈ 0.256 µM) | 0.195 (≈ 0.509 µM) | 0.025 (≈ 0.0652 µM) |  | 1 |
